Reference: patent publication US20250115563A1, “MODULATORS OF THE INTEGRATED STRESS PATHWAY” (Calico Life Sciences LLC, priority 2017, published 2025)

Each compound was assayed on HEK293T cells carrying the ATF4 luciferase reporter (assay: ATF4-Luc assay (in vitro model of VWMD)). Conditions: Homo sapiens, HEK-293T; HEK293T cells with ATF4 5'-UTR firefly luciferase reporter; 1 μg/mL tunicamycin; 7 hours; One Glo luminescence.
Type: cell-based
Protocol: In order to test exemplary compounds of the invention in a cellular context, a stable VWMD cell line was first constructed. The ATF4 reporter was prepared by fusing the human full-length ATF4 5′-UTR (NCBI Accession No. BC022088.2) in front of the firefly luciferase (FLuc) coding sequence lacking the initiator methionine as described in Sidrauski et al (eLife 2013). The construct was used to produce recombinant retroviruses using standard methods and the resulting viral supernatant was used to transduce HEK293T cells, which were then subsequently selected with puromycin to generate a stable cell line.
HEK293T cells carrying the ATF4 luciferase reporter were plated on polylysine coated 384-well plates (Greiner Bio-one) at 30,000 cells per well. Cells were treated the next day with 1 μg/mL tunicamycin and 200 nM of a compound of Formula (I) for 7 hours. Luminescence was measured using One Glo (Promega) as specified by the manufacturer. Cells were maintained in DMEM with L-glutamine supplemented with 10% heat-inactivated FBS (Gibco) and Antibiotic-Antimycotic solution (Gibco).
Table 2 below summarizes the EC50 data obtained using the ATF4-Luc assay for exemplary compounds of the invention.

Row | Structure (SMILES) | EC50 [nM]
1 | O=C(COc1ccc(Cl)c(F)c1)NC12CCC(c3nnc(Oc4ccc(Cl)c(F)c4)o3)(CC1)C(O)C2 (stereo not drawn) [Compound 170, 2-(4-chloro-3-fluorophenoxy)-N-{4-[5-(4-chloro-3-fluorophenoxy)-1,3,4-oxadiazol-2-yl]-3-hydroxybicyclo[2.2.2]octan-1-yl}acetamide] | < 50
2 | O=C(COc1ccc(Cl)c(F)c1)NC12CCC(c3nnc(Oc4ccc(Cl)c(F)c4)o3)(CC1)[C@H](O)C2 [Compound 171, 2-(4-chloro-3-fluorophenoxy)-N-{(3R)-4-[5-(4-chloro-3-fluorophenoxy)-1,3,4-oxadiazol-2-yl]-3-hydroxybicyclo[2.2.2]octan-1-yl}acetamide] | < 50
3 | O=C(COc1ccc(Cl)c(F)c1)NC12CCC(c3nnc(Oc4ccc(Cl)c(F)c4)o3)(CC1)[C@@H](O)C2 [Compound 172, 2-(4-chloro-3-fluorophenoxy)-N-{(3S)-4-[5-(4-chloro-3-fluorophenoxy)-1,3,4-oxadiazol-2-yl]-3-hydroxybicyclo[2.2.2]octan-1-yl}acetamide] | < 50
